Measurements taken from publication PMC10424242, “Macrocyclic Peptidomimetic Plasmepsin X Inhibitors with Potent In Vitro and In Vivo Antimalarial Activity” (Journal of Medicinal Chemistry, 2023).
“Also recorded” adds a separate entry of the source.

Tests used:
[1] = Tolerability testing in mice; assay type: in vivo, NMRI female mice; details: p.os 50 mg/kg up to 24 h, 0–6 score system
Method: NMRI female mice (10–12 weeks old, 29–32 g) were obtained from ENVIGO (The Netherlands) and housed prior to treatment under standard conditions (acclimatization period of 1 week, 21–23 °C, 12-h light/dark cycle, relative humidity 45–65%) with unlimited access to food (R70 diet from Lantmännen) and water. The experimental procedures were performed in accordance with the guidelines of the European Community and local laws and policies (Directive 2010/63/EU), and all of the procedures were approved by Food and Veterinary Service, Riga, Latvia. Animals were weighed on the day of the treatment (before treatment) to calculate the required amount of compound for the corresponding dose. For tolerability and PK studies, the mice were dosed via a peroral (PO) bolus administration (volume 10 mL/kg). Toxicity signs were scored 0–2, 5, 10, 15, 30, 60, 120, 240 min, and 24 h after administration using a widely used 0–6 score system.

[2] = test system: SUB1 p54 to p47 conversion (PMX activity); assay: Washout assay, SUB1 maturation by Western blot; assay type: cell-based, P. falciparum; details: 20 nM ∼44 h, C2 1 μM for 1 h
Method: (§1) The schizont cultures lacking added RBCs were supplemented with compound C2, which blocks the discharge of exonemes, the parasite secretory organelles in which PMX and SUB1 are stored before egress. The schizonts without added RBCs were sampled for Western blot analysis, while the schizont cultures containing RBCs were examined by microscopy and flow cytometry after a further 4 h in culture to quantify schizont rupture and new ring formation.
(§2) Synchronous parasite cultures were cultured from ring to schizont stage (∼44 h) in the presence of DMSO alone (0.04% v/v; control) or macrocycle compounds (20 nM final concentration). Schizonts were isolated by Percoll enrichment (still in the presence of the test compound), then either immediately frozen or further incubated in the absence of the drug but in the presence of C2 (1 μM) for 1 h at 37°C in the absence of added RBCs or for 3.5 h in the presence of added RBCs. The schizonts without added RBCs were then frozen too, and all schizont samples were then thawed into CHAPS–urea extraction buffer, subjected to sodium dodecyl sulfate-polyacrylamide gel electrophoresis (SDS-PAGE), and analyzed by Western blot, probing with antibodies against SUB1 or RAP1. For schizonts cultured in the presence of added RBCs, ring formation was assessed in two ways: cultures were examined microscopically by Giemsa stain of thin films and were also fixed with glutaraldehyde and processed for quantification of ring formation by flow cytometry as described above.

[3] = test system: maturation of the PMX substrate SUB1 (p54 to p47); assay: Western blot of SUB1 maturation in treated schizonts; assay type: cell-based, P. falciparum; details: 20 nM, 44 h
Method: This phenotype is characteristic of the inhibition of PMX.
as §2

[4] = test system: P. falciparum Pf3D7^0087/N9; assay: In vivo efficacy against P. falciparum in the TAD PfalcHuMouse model
Method: Therapeutic efficacy studies were performed at TAD using a standardized humanized mouse model of P. falciparum malaria[31] with modifications.[34] […] The volume of injections was 1 and 0.7 mL for i.p. or i.v. inoculation, respectively.
The inoculum was obtained from peripheral blood of CO2-euthanized donor mice harboring 5–10% parasitemia.
Before drug administration, each infected mouse was randomly assigned to its corresponding treatment. […] The treatment was administered by oral gavage with 20G straight reusable feeding needles (Fine Science Tools GmbH) at 10 mL·kgbodyweight^–1 unless otherwise stated.
Parasitemia was measured in serial 2 μL of samples of tail blood by flow cytometry and expressed as the % of parasitized erythrocytes with respect to the total erythrocytes in circulation.
The clearance of parasitized erythrocytes from the peripheral blood of mice was assessed by measuring the parasite reduction ratio (PRR) calculated as the ratio between parasitemia at Day n + 2 divided by parasitemia at Day n for each individual of the study.
The parasiticidal effect of drugs in vivo was assessed by measuring the day of recrudescence (DoR) as described.[34] In short, DoR was defined as the day at which parasitemia after drug treatment reached the % parasitemia at treatment inception. Drug-treated mice were deemed cured if there was no detectable parasitemia 60 days after treatment.

P. falciparum schizonts = assay: Washout assay, schizont rupture and new ring formation; assay type: cell-based; details: 20 nM ∼44 h, […] with added RBCs
Method: as §1, §2

[5] = test system: maturation of RAP1, substrate of PMIX; assay: Western blot of RAP1 maturation in treated schizonts; assay type: cell-based, P. falciparum; details: 20 nM, 44 h
From the text: Figure 4 Macrocycle PMX inhibitors have no effect on intraerythrocytic parasite maturation but prevent egress and maturation of SUB1. […] Scale bar, 20 μm. (B) Simplified schematic of proteolytic maturation of the egress effector SUB1. Conversion of the precursor form to p54 is through autocatalytic removal[32] of the prodomain region (PD), whereas conversion of p54 to p47 is mediated by PMX.[15],[16],[33] (C) Left, Western blot analysis of P. falciparum 3D7 schizonts allowed to mature in the presence of the indicated macrocycle compounds (20 nM), showing defective SUB1 maturation in parasites treated with the indicated macrocycle compounds. Right, Western blot of the same extracts probed with a monoclonal antibody (mAb) specific to the rhoptry protein RAP1, which is a substrate for cleavage by the related P. falciparum protease PMIX. The compounds had no discernible effect on the maturation of RAP1. The results shown are typical of 3 independent experiments.
as §2

[6] = Pharmacokinetics in mice (plasma, UPLC/MS/MS); assay type: in vivo; details: female, NMRI, mouse, po, p.os 50 mg/kg
Method: Animals were weighed on the day of the treatment (before treatment) to calculate the required amount of compound for the corresponding dose. For tolerability and PK studies, the mice were dosed via a peroral (PO) bolus administration (volume 10 mL/kg).
For the pharmacokinetics experiment, blood samples were collected in tubes containing heparin. […] Tubes were centrifuged at +4 °C 10,000g for 3 min. Plasma samples were collected and stored at −20 °C until analysis.
Concentrations of VAD259 in mouse plasma were measured by ultra-performance liquid chromatography–tandem mass spectrometry using Waters Acquity UPLC H-class chromatograph coupled to the Waters Xevo TQ-S micro mass spectrometer using the Waters Acquity UPLC BEH-C18 column (2.1 mm × 50 mm, 1.7 μm). Mobile phase A was 0.1% aqueous formic acid, and mobile phase B was acetonitrile.
The mass spectrometer was operated in positive electrospray ionization mode (ESI+), and data acquisition was performed in multiple reaction monitoring (MRM) modes with ionization parameters as follows: capillary energy of 3.0 kV, cone voltage of 25 V, and collision energy of 20 eV.
Blood plasma samples were processed using plasma protein precipitation. Then, 20 μL of plasma was mixed with 300 μL of acetonitrile/methanol (3:1/v:v) mixture, and the sample was centrifuged at 1000g for 10 min. The supernatant was further diluted 3 times with 0.1% aqueous formic acid and subjected to UPLC/MS/MS analysis.

CCCN1CCCCCc2cccc(c2)C[C@@H]([C@H](O)CNC(C)(C)c2cccc(OC)c2)NC(=O)c2cccc(c2)C1=O [7k, (S)-4-((R)-1-Hydroxy-2-((2-(3-methoxyphenyl)propan-2-yl)amino)ethyl)-12-propyl-3,12-diaza-1,6(1,3)-dibenzenacyclotridecaphane-2,13-dione]
tolerability [1]: No adverse effects were observed; also recorded: no toxic effect (score 0)
SUB1 p54 to p47 conversion after washout [2]: no conversion of SUB1 p54 to p47 occurred
maturation of SUB1 (p54 to p47) [3]: clear defect in maturation of the PMX substrate SUB1
clearance of parasitemia from peripheral blood ([4]; 40 mg/kg p.o., UID, BID or TID): cleared parasitemia from the peripheral blood in a dose-dependent manner
parasite clearance rate compared with chloroquine ([4]; chloroquine at 10 mg/kg for 2 days in the same system): comparable to those produced by chloroquine at 10 mg/kg for 2 days
parasite killing in vivo (DoR versus exposure) compared with chloroquine ([4]; comparable treatment regimens, chloroquine historical data): as potent as chloroquine
distribution of parasite stages in peripheral blood ([4]; day 3 of the assay, flow cytometry and microscopy): relative accumulation of circulating mature schizonts compared to untreated controls
effect on parasite burden ([4]; three times a day for 4 days at 40 mg/kg, oral): eliminated P. falciparum from peripheral blood at a rate comparable to chloroquine single-dose administration for 2 days (10 mg/kg)
new ring formation after washout (P. falciparum schizonts): minimal rings were produced
maturation of RAP (PMIX substrate) [5]: do not affect PMIX activity at these concentrations
AUC(0-t) at 6 h [6]: 218 ng·h/mL
Cmax at 6 h [6]: 64 ng/mL
Tmax at 6 h [6]: 60 min
half-life at 6 h [6]: 53 min
AUC(0-inf) at 6 h ([6]; read-out: AUC0-inf_obs): 222 ng·h/mL
